From patent US6060516A, “N^1 -propargylhydrazines, N^2 -propargylhydrazines and their analogs for the treatment of depression, anxiety and neurodegeneration” (CV Technologies, Inc., priority 1998, dated 2000)

Tests used:
[1] = system: valine, alanine and gamma-aminobutyric acid (GABA) concentrations in rat brain; assay: Brain valine, alanine and gamma-aminobutyric acid (GABA) concentrations; assay type: in vivo; details: for GABA / Valine: 2 × 75 μmol/kg per os
[2] = system: NA, DA, 5-HT, 5-HIAA and DOPAC concentrations in rat hypothalamus; assay: Rat hypothalamus amine and amine metabolite concentrations; assay type: in vivo
Protocol: The effects of various doses of CVT-P040 on the concentrations of hypothalamus amine neurotransmitters and their metabolites were evaluated by examining concentrations of noradrenaline (NA), dopamine (DA), 5-hydroxytryptamine (5-HT), 5-hydroxyindoleacetic acid (5-HIAA) and 3,4-dihydroxyphenylacetic acid (DOPAC) in rat hypothalami 5 hours after the injection of the drug. […] The brains were removed and divided in half. One half of the brain was frozen in isopentane on dry ice and retained for estimates of amino acid neurotransmitter concentrations. The other half had the hypothalamus removed and frozen on dry ice for later estimates of amines and their metabolites according to the method of Sloley, B. D. and Goldberg J. I. (1991), Determination of γ-glutamyl conjugates of monoamines by means of high-performance liquid chromatography with electrochemical detection and application to gastropod tissues, J. Chromatog. 567: 49-56. The rest of the brain was frozen on dry ice for ex vivo examination of MAO activity as described earlier.

[3] = system: serotonin uptake in rat striatal prisms; assay: Serotonin (5-HT) uptake inhibition in rat striatal prisms in vitro; assay type: biochemical
Protocol: CVT-P040 was evaluated for the ability to inhibit serotonin uptake in rat striatal prisms using the procedure of Martin, I. L., Baker, G. B. and Mitchell, P. R. (1978), The effect of viloxazine hydrochloride on the transport of noradrenaline, dopamine, 5-hydroxytryptamine and γ-aminobutyric acid in rat brain tissue Neuropharmacology 17: 421-423. Briefly, untreated rats were killed by guillotine decapitation, their brains removed, placed on an ice-cooled plate and the striatum was dissected out from the rest of the brain. The striatum was then chopped into 0.1×0.1×2 mm prisms using a Mcllwain tissue chopper and suspended in 5 volumes incubation medium containing 123 mM sodium chloride, 5 mM potassium chloride, 2.7 mM calcium chloride, 1.2 mM magnesium sulphate, 20 mM TRIS-HCl buffer (pH 7.5), 1 mM ascorbic acid, 10 mM glucose and 12.5 μM nialamide. The suspension was stored out of direct light and buried in ice. Aliquots (1 ml) of the tissue suspension were added to flasks containing 4 ml of incubation medium and this mixture was incubated for 15 min at 37° C. in a shaking water bath. Next, 10 µl of the appropriate chemical was added to each tube except the blanks and controls, followed by the addition of 10 μl of ^3 H-5-HT (final concentration 0.1 μM). The mixtures were incubated for 5 min at 37° C., then quickly filtered with a Millipore vacuum filter apparatus and rinsed two times with 5 ml warm (37° C.) incubation medium. Filters were transferred to scintillation vials and 10 ml Ready Safe scintillation cocktail was added to each. Radioactive content per tube was counted using a liquid scintillation spectrophotometer. Percent 5-HT uptake inhibition was calculated by applying the following equation: [formula]

[4] = biological target: T1, rat brain monoamine oxidase-B (Rattus norvegicus, UniProt P19643); assay: Monoamine oxidase-B inhibiting activity in vitro (radiochemical, β-phenylethylamine substrate, rat brain homogenate); assay type: biochemical; details: for inhibition at 100 µM: 1 × 10^-4 M; for inhibition at 10 µM: 1 × 10^-5 M; for inhibition at 1 µM: 1 × 10^-6 M; for inhibition at 0.1 µM: 1 × 10^-7 M; for inhibition at 0.01 µM: 1 × 10^-8 M
T1 construct: appropriately diluted homogenates of rat brain or liver; from tissue; host or cells: rat brain or liver homogenate
T1 sequence (P19643 1-520): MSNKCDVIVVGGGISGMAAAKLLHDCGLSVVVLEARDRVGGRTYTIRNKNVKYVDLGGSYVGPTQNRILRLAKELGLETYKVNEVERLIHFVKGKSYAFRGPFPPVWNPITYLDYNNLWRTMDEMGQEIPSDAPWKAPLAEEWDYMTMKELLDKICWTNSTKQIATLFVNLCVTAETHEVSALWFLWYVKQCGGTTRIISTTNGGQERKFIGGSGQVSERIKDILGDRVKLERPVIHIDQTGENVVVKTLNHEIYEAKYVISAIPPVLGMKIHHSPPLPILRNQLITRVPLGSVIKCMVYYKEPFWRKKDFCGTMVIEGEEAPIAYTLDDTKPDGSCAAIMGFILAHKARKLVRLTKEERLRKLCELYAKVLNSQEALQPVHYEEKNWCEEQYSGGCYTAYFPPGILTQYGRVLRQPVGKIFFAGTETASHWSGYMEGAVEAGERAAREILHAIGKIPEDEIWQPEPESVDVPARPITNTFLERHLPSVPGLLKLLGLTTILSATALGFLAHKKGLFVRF
Protocol: Radiolabelled β-phenylethylamine was employed as a substrate for monoamine oxidase-B. Various concentrations of the compounds of interest were incubated in appropriately diluted homogenates of rat brain or liver in a 0.2 M potassium phosphate buffer. Incubations proceeded at 37° C. for 10 minutes. Incubation was terminated by the addition of acid and the radiolabelled product (phenylacetaldehyde and phenylacetic acid) was extracted and quantified by liquid scintillation counting procedures. Incubations were done in triplicate and incubations containing phenelzine were included for comparison. The percent inhibition of monoamine oxidase-B activity compared to controls containing no drug was calculated.

Compound `C#CCN(N)CCc1ccccc1` [CVT-P040, N^1 -propargylphenelzine] has a GABA [1] of 329 ± 43 µg/g, a Valine [1] of 25.4 ± 1.8 µg/g and a 5-HIAA ([2]; 0.58 μmol/kg, 5 hr, ip) of 350 ± 28 ng/g. For the same compound, the 5-HT ([2]; 0.58 μmol/kg, 5 hr, ip) was 652 ± 69 ng/g, the DA ([2]; 0.58 μmol/kg, 5 hr, ip) was 716 ± 82 ng/g and the DOPAC ([2]; 0.58 μmol/kg, 5 hr, ip) was 77 ± 9 ng/g. The NA ([2]; 0.58 μmol/kg, 5 hr, ip) was 1155 ± 81 ng/g, the 5-HIAA ([2]; 5.75 μmol/kg, 5 hr, ip) was 327 ± 26 ng/g and the 5-HT ([2]; 5.75 μmol/kg, 5 hr, ip) was 634 ± 58 ng/g. For the same compound, the DA ([2]; 5.75 μmol/kg, 5 hr, ip) was 717 ± 85 ng/g, the DOPAC ([2]; 5.75 μmol/kg, 5 hr, ip) was 80 ng/g and the NA ([2]; 5.75 μmol/kg, 5 hr, ip) was 1332 ± 98 ng/g. For the same compound, the 5-HIAA ([2]; 57.5 μmol/kg, 5 hr, ip) was 294 ± 22 ng/g, the 5-HT ([2]; 57.5 μmol/kg, 5 hr, ip) was 1324 ng/g and the DA ([2]; 57.5 μmol/kg, 5 hr, ip) was 753 ± 99 ng/g. For the same compound, the DOPAC ([2]; 57.5 μmol/kg, 5 hr, ip) was 49 ng/g, the NA ([2]; 57.5 μmol/kg, 5 hr, ip) was 1672 ± 82 ng/g and the 5-HIAA ([2]; 150 μmol/kg, 5 hr, ip) was 131 ± 8 ng/g. For the same compound, the 5-HT ([2]; 150 μmol/kg, 5 hr, ip) was 1497 ng/g, the DA ([2]; 150 μmol/kg, 5 hr, ip) was 522 ± 28 ng/g and the DOPAC ([2]; 150 μmol/kg, 5 hr, ip) was 45 ± 4 ng/g. The NA ([2]; 150 μmol/kg, 5 hr, ip) was 2050 ± 202 ng/g, the 5-HIAA ([2]; 173 μmol/kg, 5 hr, ip) was 148 ± 10 ng/g and the 5-HT ([2]; 173 μmol/kg, 5 hr, ip) was 1509 ng/g. For the same compound, the DA ([2]; 173 μmol/kg, 5 hr, ip) was 865 ± 19 ng/g, the DOPAC ([2]; 173 μmol/kg, 5 hr, ip) was 30 ng/g and the NA ([2]; 173 μmol/kg, 5 hr, ip) was 1867 ± 253 ng/g. The 5-HIAA ([2]; 2 × 75 μmol/kg per os) was 197 ng/g, the 5-HT ([2]; 2 × 75 μmol/kg per os) was 1215 ± 36 ng/g and the DA ([2]; 2 × 75 μmol/kg per os) was 487 ± 47 ng/g. The DOPAC ([2]; 2 × 75 μmol/kg per os) was 50 ± 3 ng/g, the NA ([2]; 2 × 75 μmol/kg per os) was 2230 ± 101 ng/g and the 5-HIAA concentrations ([2]; dose dependent, in words) was “significantly reduced 5-HIAA and DOPAC concentrations”. The 5-HT concentrations ([2]; dose dependent, in words) was “significantly elevated 5-HT and NA concentrations”, the DOPAC concentrations ([2]; dose dependent, in words) was “significantly reduced 5-HIAA and DOPAC concentrations” and the NA concentrations ([2]; dose dependent, in words) was “significantly elevated 5-HT and NA concentrations”. The “reduction in 5-hydroxyindoleacetic acid concentrations compared with phenelzine” value ([2]; equivalent doses, in words) was “comparable to that determined with equivalent doses of phenelzine”, the “% Inhibition (serotonin uptake)” value ([3]; 1 × 10^-4 M) was 90.1 ± 3.3% and the “% Inhibition (serotonin uptake)” value ([3]; 1 × 10^-5 M) was 50.2 ± 2.5%. For the same compound, the “% Inhibition (serotonin uptake)” value ([3]; 1 × 10^-6 M) was 49.1 ± 4.3%, the inhibition at 100 µM [4] was 99.7% and the inhibition at 10 µM [4] was 97.9%. The inhibition at 1 µM [4] was 88.8%, the inhibition at 0.1 µM [4] was 59.8% and the inhibition at 0.01 µM [4] was 19.9%.

`C#CCN(CCc1ccccc1)NC(C)=O` [CVT-P041, N^1 -propargyl-N^2 -acetylphenelzine] gave a GABA [1] of 300 ± 22 µg/g, a Valine [1] of 26.4 ± 1.4 µg/g and a 5-HIAA ([2]; 150 μmol/kg, 5 hr, ip) of 179 ± 6 ng/g. For the same compound, the 5-HT ([2]; 150 μmol/kg, 5 hr, ip) was 1100 ng/g, the DA ([2]; 150 μmol/kg, 5 hr, ip) was 461 ± 34 ng/g and the DOPAC ([2]; 150 μmol/kg, 5 hr, ip) was 91 ± 6 ng/g. The NA ([2]; 150 μmol/kg, 5 hr, ip) was 2141 ± 86 ng/g, the 5-HIAA ([2]; 2 × 75 μmol/kg per os) was 228 ± 17 ng/g and the DOPAC ([2]; 2 × 75 μmol/kg per os) was 50 ng/g. For the same compound, the NA ([2]; 2 × 75 μmol/kg per os) was 1749 ng/g, the “% Inhibition (serotonin uptake)” value ([3]; 1 × 10^-4 M) was 22.2 ± 4.6% and the inhibition at 100 µM [4] was 92.7%. For the same compound, the inhibition at 10 µM [4] was 71.3%, the inhibition at 1 µM [4] was 28.8% and the inhibition at 0.1 µM [4] was 6.2%. It also gave an inhibition at 0.01 µM [4] of -2%.

With `NNCCc1ccccc1` [phenelzine, 1-(2-phenyl) ethylhydrazine, reference compound] the GABA [1] was 733 µg/g, the Valine [1] was 24.3 ± 0.8 µg/g and the “elevation of alanine levels” value ([1]; phenelzine) was “about 4 fold”. For the same compound, the “brain GABA concentrations” value ([1]; phenelzine 150 pmol/kg (so in the source), in words) was “caused elevations in brain GABA concentrations”, the 5-HIAA ([2]; 5.75 μmol/kg, 5 hr, ip) was 334 ± 23 ng/g and the 5-HT ([2]; 5.75 μmol/kg, 5 hr, ip) was 755 ng/g. It also gave a DA ([2]; 5.75 μmol/kg, 5 hr, ip) of 544 ± 66 ng/g, a DOPAC ([2]; 5.75 μmol/kg, 5 hr, ip) of 89 ± 7 ng/g and an NA ([2]; 5.75 μmol/kg, 5 hr, ip) of 1468 ± 119 ng/g. It also gave a 5-HIAA ([2]; 150 μmol/kg, 5 hr, ip) of 131 ng/g, a 5-HT ([2]; 150 μmol/kg, 5 hr, ip) of 1583 ± 95 ng/g and a DA ([2]; 150 μmol/kg, 5 hr, ip) of 385 ng/g. For the same compound, the DOPAC ([2]; 150 μmol/kg, 5 hr, ip) was 51 ± 4 ng/g, the NA ([2]; 150 μmol/kg, 5 hr, ip) was 2113 ± 102 ng/g and the 5-HIAA ([2]; 2 × 75 μmol/kg per os) was 167 ng/g. The DOPAC ([2]; 2 × 75 μmol/kg per os) was 54 ± 4 ng/g, the NA ([2]; 2 × 75 μmol/kg per os) was 2148 ± 171 ng/g and the inhibition at 100 µM [4] was 100%. For the same compound, the inhibition at 10 µM [4] was 100%, the inhibition at 1 µM [4] was 90.1% and the inhibition at 0.1 µM [4] was 18.3%. The inhibition at 0.01 µM [4] was 6.9%.
